This passage reports viability, T/C and IC50 results from PubChem BioAssay AID2060888 (Molecular Pharmacology Branch, DTP, NCI, 2025).

One may read the viability, T/C as the result in the treated group divided by that in the control group, in per cent. As usually defined, the pIC50 is the IC50 on a negative log10 scale, so that one unit is a factor of ten.

The test system of the assay is 695427-040-R-J1-PDC complex spheroid viability. Description: Anticancer human tumor 695427-040-R-J1-PDC patient-derived colon adenocarcinoma cell line growth inhibition [RAS]. The note with it: for viability, T/C: stronger effect = lower value. The text has this: RAS pathway inhibitors in Combinations in Complex Spheroids
A high-throughput screen of multi-cell type tumor spheroids was designed to identify active combinations of RAS pathway inhibitors and targeted small molecules. Complex spheroids include a stromal component modeled by human endothelial cells (HUVEC) and fibroblasts modeled by human mesenchymal stem cells (MSCs). The concentration ranges selected for each drug and investigational agent were based upon clinically achievable concentrations if the clinical Cmax of the agent was known.
Compounds. The drugs and investigational agents: abemaciclib (NSC768073), cobimetinib (NSC768068), divarasib (GDC6063, NSC841802), docetaxel (NSC628503), GDC-1971 (RLY-1971, NSC841576), gemcitabine (NSC613327), inavolisib (NSC800729), ipatasertib (NSC767898), KB-0742 (NSC834161), MRTX-1133 (NSC836407), osimertinib (NSC779217), RMC-4630 (NSC839698), RMC-6236 (NSC851965), RMC-6291 (NSC852671), Ro-3306 (NSC812927), sapanisertib (NSC764658), SN-38 (NSC673596), staurosporine (NSC755774), SY5609 (NSC837396), and tovorafenib (DAY101, NSC766906), were obtained from the National Cancer Institute (NCI) Developmental Therapeutics Program Chemical Repository. The FDA-approved anticancer drug set is available from the NCI Developmental Therapeutics Program. […] The stock solutions were prepared in dimethyl sulfoxide (DMSO, Sigma-Aldrich, St. Louis, MO, cat. D2650) at 800-fold the tested concentration and stored at -70 degrees C prior to their use. All drugs and investigational agents were tested over a range starting from a high concentration at or near the clinical Cmax and decreasing in half-log increments. If the clinical Cmax for an agent had not been determined, the highest concentration tested was 10 microM.
Cell Culture. All cells were maintained in an incubator at 37 degrees C and 5% CO2 with 95% humidity. The PDC lines were cultured according to standard operating procedures established by the NCI PDMR. All PDCs were thawed and cultured in Matrigel-coated flasks prepared with a working solution of 1X Ham's F-12 nutrient mix, without supplementation (Invitrogen, Waltham, MA, cat. 11765054), 100 U/mL penicillin-streptomycin (Invitrogen, cat. 15140122), and 2.5% Matrigel (Corning Inc., Corning, NY, cat. 354248) for the first three passages. The 362531-283-R-J2-PDC and 782815-120-R-J1-PDC lines were cultured in 6C/Colon 1B media, which includes advanced DMEM/F-12 (Thermo Fisher Scientific, cat. 12634028), 10 mM HEPES (Thermo Fisher Scientific, cat. 15630080), 1X GlutaMAX supplement (Thermo Fisher Scientific, cat. 35050061), 0.1 mg/mL primocin (InvivoGen, San Diego, CA, cat. ant-pm-2), 10% defined fetal bovine serum, heat inactivated (HyClone Laboratories Inc., Logan, UT, cat. SH30070.03HI), 50% L-WRN conditioned media (ATCC, cat. CRL-3276), 1.25 mM N-Acetyl-L-cysteine (Sigma-Aldrich, cat. A9165), 10 mM nicotinamide (Sigma-Aldrich, cat. N0636), 1X B-27 supplement (Thermo Fisher Scientific, cat. 17504044), 1X N-2 supplement (Thermo Fisher Scientific, cat. 17502048), 50 ng/mL human EGF (Thermo Fisher Scientific, cat. PHG0311), and 10 microM Y-27632 dihydrochloride (Tocris Bioscience, cat. 1254). The K12877-001-R-J1-PDC line was cultured in 6I media, which includes all 6C/Colon 1B media plus 10 ng/mL human FGF-10 (PeproTech, cat. 100-26), 1 ng/mL human FGF-2 (PeproTech, cat. 100-18B), 1 µM prostaglandin E2 (Tocris Bioscience, cat. 2296), […] hydrocortisone (Sigma-Aldrich, cat. H4001), and […] bovine insulin (Sigma-Aldrich, cat. I6634). The K86415-001-R-J1-PDC line was cultured in 6D media, which includes all 6C/Colon 1B media components minus the L-WRN conditioned media. The 485176-168-R4-J1-PDC was cultured in PANC media, which includes all 6C/Colon 1B media plus 100 ng/mL human FGF-10 (PeproTech, cat. 100-26), 500 nM SB-431542 (Selleckchem, cat. S1067), and 10 nM gastrin (Tocris Bioscience, cat. 3006). […]

pIC50: −log10 of the molar value. “And” between values parts separate entries of the source, which are not always exact repeats. Identical values can stand only once.
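Note: viability read after seven days of drug exposure.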

Regarding `CC(=O)OC12COC1CC(O)C1(C)C(=O)C(O)C3=C(C)C(OC(=O)C(O)C(NC(=O)OC(C)(C)C)c4ccccc4)CC(O)(C(OC(=O)c4ccccc4)C21)C3(C)C` (centres undefined), the viability, T/C is 71.6% [middle of 4 runs] (compound 0.0316 µM); 68.3% [middle of 4 runs] (compound 0.1 µM); 72.2% [middle of 4 runs] (compound 0.316 µM); 76.2% [middle of 4 runs] (compound 1 µM); 90.3% [middle of 4 runs] (compound 10 µM). For the same molecule, the pIC50 (curve of compound) is less than 5.00.

Take `CC1(O)CCCC1n1c(=O)c(C(F)F)cc2cnc(NC3CCN(S(C)(=O)=O)CC3)nc21` (centres undefined): the viability, T/C reads like this: (compound 0.0316 µM) 93.3% [middle of 4 runs]; (compound 0.1 µM) 98.2% [middle of 4 runs]; (compound 0.316 µM) 104% [middle of 4 runs]; (compound 3.16 µM) 123% (2×) and 107% and 97.5%; (compound 10 µM) 64.5% [middle of 4 runs]. Also, the pIC50 (curve of compound) is less than 5.00.

`CCC(CC)c1cc(NC2CCC(N)C2)n2nccc2n1` (centres undefined): the viability, T/C is 104% [middle of 4 runs] (compound 0.0316 µM); 96.3% [middle of 4 runs] (compound 0.1 µM); 106% (2×) and 127% and 91% (compound 0.316 µM); 108% [middle of 4 runs] (compound 1 µM); 15.6% [middle of 4 runs] (compound 3.16 µM); 12.6% [middle of 4 runs] (compound 10 µM). Moreover, the pIC50 (curve of compound) is 5.66 and 5.71 and 5.74.

Regarding `Cc1nc(N2CCC3(CC2)COC(C)C3N)c(CO)nc1Sc1ccnc(N)c1Cl` (centres undefined), the viability, T/C was 87% [middle of 4 runs] (compound 0.0316 µM); 85.2% [middle of 4 runs] (compound 0.1 µM); 73.3% [middle of 4 runs] (compound 0.316 µM); 76.3% [middle of 4 runs] (compound 1 µM); 65.7% [middle of 4 runs] (compound 3.16 µM); 59.8% [middle of 4 runs] (compound 10 µM). Besides, the negative-log IC50 (pIC50) (curve of compound) is less than 5.00.

On to `NC1c2ccccc2OC12CCN(c1cnc3c(N4CCCc5ncccc54)n[nH]c3n1)CC2` (centres undefined), for which the viability, T/C (compound 0.0316 µM) was 78.6% [middle of 4 runs]; the viability, T/C (compound 0.1 µM) is 64.9% [middle of 4 runs]; the viability, T/C (compound 0.316 µM) was 64.5% [middle of 4 runs]; the viability, T/C (compound 1 µM) was 55.7% [middle of 4 runs]; the viability, T/C (compound 3.16 µM) was 49.4% [middle of 4 runs]; the viability, T/C (compound 10 µM) was 43.5% [middle of 4 runs].

For the molecule `C=CC(=O)Nc1cc(Nc2nccc(-c3cn(C)c4ccccc34)n2)c(OC)cc1N(C)CCN(C)C` + C#Cc1c(F)ccc2cc(O)cc(-c3ncc4c(N5CC6CCC(C5)N6)nc(OCC56CCCN5CC(F)C6)nc4c3F)c12, the pIC50 (curve of first compound, second compound 0.0316 µM) was 6.46; the negative logarithm of the IC50 (pIC50) (curve of first compound, second compound 0.1 µM) is 6.40; the pIC50 (curve of first compound, second compound 0.316 µM) was 6.62; the pIC50 (curve of first compound, second compound 1 µM) is 6.78; the negative logarithm of the IC50 (pIC50) (curve of first compound, second compound 3.16 µM) is 7.29; the pIC50 (curve of first compound, second compound 10 µM) was greater than 8.50. Further, the viability, T/C is, setting by setting: (second compound 0.0316 µM, first compound 0.00316 µM) 99.4%; (second compound 0.0316 µM, first compound 0.01 µM) 92.1%; (second compound 0.0316 µM, first compound 0.0316 µM) 92.3%; (second compound 0.0316 µM, first compound 0.1 µM) 69.6%; (second compound 0.0316 µM, first compound 0.316 µM) 53.1%; (second compound 0.0316 µM, first compound 1 µM) 31.5%. Moreover, the viability, T/C reads like this: (second compound 0.1 µM, first compound 0.00316 µM) 93.1%; (second compound 0.1 µM, first compound 0.01 µM) 100%; (second compound 0.1 µM, first compound 0.0316 µM) 80.9%; (second compound 0.1 µM, first compound 0.1 µM) 69.9%; (second compound 0.1 µM, first compound 0.316 µM) 58.6%; (second compound 0.1 µM, first compound 1 µM) 29.2%. Besides, the viability, T/C was 95.8% (second compound 0.316 µM, first compound 0.00316 µM); 81% (second compound 0.316 µM, first compound 0.01 µM); 77.8% (second compound 0.316 µM, first compound 0.0316 µM); 61.5% (second compound 0.316 µM, first compound 0.1 µM); 48.1% (second compound 0.316 µM, first compound 0.316 µM); 27.6% (second compound 0.316 µM, first compound 1 µM). Also, the viability, T/C is 72.6% (second compound 1 µM, first compound 0.00316 µM); 79.7% (second compound 1 µM, first compound 0.01 µM); 68.9% (second compound 1 µM, first compound 0.0316 µM); 59% (second compound 1 µM, first compound 0.1 µM); 38.7% (second compound 1 µM, first compound 0.316 µM); 23% (second compound 1 µM, first compound 1 µM). The viability, T/C (second compound 3.16 µM, first compound 0.00316 µM) was 57.7%; the viability, T/C (second compound 3.16 µM, first compound 0.01 µM) is 55.1%; the viability, T/C (second compound 3.16 µM, first compound 0.0316 µM) is 56.6%; the viability, T/C (second compound 3.16 µM, first compound 0.1 µM) is 42.6%; the viability, T/C (second compound 3.16 µM, first compound 0.316 µM) was 30.6%; the viability, T/C (second compound 3.16 µM, first compound 1 µM) is 20%. In addition, the viability, T/C runs as follows: (second compound 10 µM, first compound 0.00316 µM) 39.4%; (second compound 10 µM, first compound 0.01 µM) 41.5%; (second compound 10 µM, first compound 0.0316 µM) 37.3%; (second compound 10 µM, first compound 0.1 µM) 32.4%; (second compound 10 µM, first compound 0.316 µM) 25.8%; (second compound 10 µM, first compound 1 µM) 15.7%.
